Structures are written as SMILES.

The target of the experiment is T1, MurNAc-pentapeptide translocase (MraY) (Staphylococcus aureus, UniProt Q2FZ93).
T1 construct: recombinant His6-tagged MraY from S. aureus ATCC6538p (ca. 36 kDa), expressed in E. coli BL21(DE3)
T1 sequence (Q2FZ93 whole entry): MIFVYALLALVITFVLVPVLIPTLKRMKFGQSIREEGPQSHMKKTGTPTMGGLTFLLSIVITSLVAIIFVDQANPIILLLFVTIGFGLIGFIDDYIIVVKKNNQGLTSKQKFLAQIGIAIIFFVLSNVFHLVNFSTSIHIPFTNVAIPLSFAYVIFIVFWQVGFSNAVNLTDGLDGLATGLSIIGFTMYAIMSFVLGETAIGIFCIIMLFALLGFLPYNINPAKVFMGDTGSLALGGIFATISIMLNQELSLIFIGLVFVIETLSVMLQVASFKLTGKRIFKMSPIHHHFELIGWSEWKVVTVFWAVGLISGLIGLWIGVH
Briefly: UMP-Glo luminescence glycosyltransferase assay with purified MraY. Type of experiment: biochemical.
The IC50 is the concentration needed to halve the response being measured. In turn, `CC(=O)N[C@H]1[C@@H](O[C@@H]2O[C@H](C[C@@H](O)[C@H]3O[C@@H](n4ccc(=O)[nH]c4=O)[C@H](O)[C@@H]3O)[C@H](O)[C@H](O)[C@H]2NC(=O)/C=C/CCCCCCCCCCC(C)C)O[C@H](CO)[C@@H](O)[C@@H]1O` [compound 1, tunicamycin VII] showed an IC50 of 142 nM.
`CCCCCCCCCCCCC/C=C/C(=O)N[C@H]1[C@H](O[C@H]2O[C@H](CO)[C@@H](O)[C@H](O)[C@H]2NC(C)=O)O[C@H](C[C@@H](O)[C@H]2O[C@@H](n3ccc(=O)[nH]c3=O)[C@H](O)[C@@H]2O)[C@H](O)[C@@H]1O` [compound 2, tunicamycin VIII] gave an IC50 of 154 nM.
Consider `CCC(C)CCCCCCCCCC/C=C/C(=O)N[C@H]1[C@H](O[C@H]2O[C@H](CO)[C@@H](O)[C@H](O)[C@H]2NC(C)=O)O[C@H](C[C@@H](O)[C@H]2O[C@@H](n3ccc(=O)[nH]c3=O)[C@H](O)[C@@H]2O)[C@H](O)[C@@H]1O` (stereo partly shown) [compound 3, corynetoxin U17a], for which the IC50 was 93.1 nM.
`CCCCCCCCCCCCCC/C=C/C(=O)N[C@H]1[C@H](O[C@H]2O[C@H](CO)[C@@H](O)[C@H](O)[C@H]2NC(C)=O)O[C@H](C[C@@H](O)[C@H]2O[C@@H](n3ccc(=O)[nH]c3=O)[C@H](O)[C@@H]2O)[C@H](O)[C@@H]1O` [compound 4, tunicamycin IX] had an IC50 of 244 nM.

(Values after PMC11277991, “Tunicamycins from Marine-Derived Streptomyces bacillaris Inhibit MurNAc-Pentapeptide Translocase in Staphylococcus aureus” (Marine Drugs, 2024).)
